Laboratory results: publication PMC10821532, “Sex and Cross-Sex Testosterone Treatment Alters Gamma-Hydroxybutyrate Acid Toxicokinetics and Toxicodynamics in Rats” (Pharmaceutics, 2024)

Test system: Sprague Dawley (SD) rats
Experiment: Sedative/hypnotic effect (sleep time, RRR-LRR) after i.v. GHB
Type: in vivo
Details: 1500 mg/kg GHB iv
Procedure: Jugular vein cannulas were surgically implanted under anesthesia with ketamine/xylazine. Cannulas were flushed daily with heparinized saline to maintain patency. Rats were allowed a minimum of 72 h for recovery from surgery before the experiments were conducted. GHB was administered intravenously as a 1000 mg/kg i.v. bolus or 1500 mg/kg iv bolus with or without AR-C155858 (1 mg/kg i.v. bolus) via a jugular vein cannula to the animals at 13 weeks of age (N = 5–7 per group). Rats were dosed in metabolic cages with ad libitum access to water to allow for the concurrent collection of blood and urine samples for up to 8 h. GHB was administered as a 300 mg/mL solution in sterile water, and the time of administration was considered as time 0. AR-C155858 was administered as a 1 mg/mL solution in 10% cyclodextrin in normal saline 5 min after GHB administration. Blood samples (200 μL) were taken from the jugular vein cannula at different time points: 5, 10, 20, 30, 60, 90, 120, 180, 240, 270, 300, and 330 min for 1000 mg/kg and 10, 30, 60, 90, 120, 180, 240, 270, 300, 330, 360, and 390/480 min for 1500 mg/kg bolus with or without AR-C155858. Plasma samples were separated by centrifugation and stored at −20 °C. Urine samples were collected at 120, 240, and 360 min for 1000 mg/kg and 120, 240, and 390/480 min for 1500 mg/kg bolus with or without AR-C155858 post-dose; the total urine volume was determined, and the samples were stored at −20 °C.
The sedative/hypnotic effects (sleep time) were determined, as described in a previous publication. The sedative/hypnotic duration effect of GHB was determined as the difference between the offset of the sedative/hypnotic effect (RRR) and the onset of the sedative/hypnotic effect (LRR).

Structure (SMILES): O=C(O)CCCO [GHB, Γ-hydroxybutyric acid]
- Sleep time (RRR–LRR), average (testosterone-treated CST rats): 422.5 min
- Sleep time, two individual rats (two of the testosterone-treated CST rats): ~ 600 min
